From patent US20050014699A1, “Combinations of enzyme inhibitor-containing preparations and the use thereof” (priority 2000, published 2005)

What was measured:
Assay type in all cases: cell-based
[1] = system: human peripheric T lymphocytes; assay: DNA synthesis of human peripheric T lymphocytes, 3[H]-thymidine incorporation; details: 72 h incubation
Description: The T cells were incubated for 72 h in the presence of said inhibitors and subsequently, the DNA synthesis rate was determined via a measurement of the ^3[H]-thymidin incorporation, as was described by Reinhold et al. [D. Reinhold et al,: “Inhibitors of dipeptidyl peptidase IV induce secretion of transforming growth factor β1 in PWM-stimulated PBMNC and T cells”, Immunology 1997, 91, 354-360].
Human peripheric T cells were incubated over 3 days with the concentrations of the inhibitors shown. Subsequently, ^3[H]-methyl thymidine was added to the culture medium, and the amount of ^3[H]-thymidine inserted into the DNA was measured after further 6 hours.
The T cells were incubated for 72 h in the presence of said inhibitors, and the DNA synthesis rate was determined subsequently by the measurement of the ^3[H]-thymidine incorporation, as was described by Reinhold et al. [D. Reinhold et al.: “Inhibitors of dipeptidyl peptidase IV induce secretion of transforming growth factor β1 in PWM-stimulated PBMNC and T cells”, Immunology 1997, 91, 354-360].
FIG. 3 show a the synergistic and dose-dependent effect of inhibitors of DP IV (I49) and of prolyl oligopeptidase (Boc-Ala-Thia) on the DNA synthesis of human peripheric T lymphocytes. Human T cells were incubated for three days with the concentrations of inhibitors mentioned above. Subsequently, ^3[H]-methyl thymidine was added to the culture medium, and the amount of ^3[H]-thymidine incorporated into the DNA was measured after further 6 hours.
Human T cells were incubated for three days with the concentrations of inhibitors mentioned above. Subsequently, ^3[H]-methyl thymidine was added to the culture medium, and the amount of ^3[H]-thymidine incorporated into the DNA was measured after further 6 hours.

[2] = system: human T cell line KARPAS-299; assay: WST-1 cell proliferation assay, KARPAS-299 cells; details: single and simultaneous administration of I49 and APN inhibitors Actinonin and Probestin (FIG. 8)
Description: FIG. 8: The KARPAS-299 cells were incubated without addition (control) and in the presence of single inhibitors mentioned above as well as in the presence of combinations thereof, respectively. Subsequently, the number of metabolically active cells was determined by using the commercially available WST-1 cell proliferation assay (Takara Inc.) in accordance with the provisions of the manufacturer.

[3] = system: activated human peripheric T cells; assay: WST-1 cell proliferation assay, activated human peripheric T cells; details: single or simultaneous administration of I49 and APN inhibitors Actinonin and Probestin; activation by phytohemagglutinine and phorbol-12-myristate-13-acetate; 72 h (FIG. 9)
Description: FIG. 9: The T cells, with the exception of the untreated control, were activated by an addition of phytohemagglutinine and phorbol-12-myristate-13-acetate to the culture medium and were incubated for a time period of 72 h in the presence of the above-mentioned inhibitors single and in combination. Subsequently, the number of metabolically active cells was determined by using the commercially available WST-1 cell proliferation assay (Takara Inc.) in accordance with the provisions of the manufacturer.

[4] = system: human peripheric mononuclear cells (MNZ); assay: DNA synthesis of human peripheric mononuclear cells (MNZ), 3[H]-thymidine incorporation; details: 72 h incubation
Description: The MNZ were incubated for 72 h in the presence of said inhibitors, and the DNA synthesis rate was determined subsequently by the measurement of the ^3[H]-thymidine incorporation, as was described by Reinhold et al. [D. Reinhold et al.: “Inhibitors of dipeptidyl peptidase IV induce secretion of transforming growth factor β1 in PWM-stimulated PBMNC and T cells”, Immunology 1997, 91, 354-360].
Human MNZ were incubated for three days with the concentrations of inhibitors mentioned above. Subsequently, ^3[H]-methyl thymidine was added to the culture medium, and the amount of ^3[H]-thymidine incorporated into the DNA was measured after further 6 hours.
The MNZ were incubated for 72 h in the presence of said inhibitors, and the DNA synthesis rate was determined subsequently by the measurement of the ^3[H]-thymidine incorporation, as was described by Reinhold et al. [D. Reinhold et al.; “Inhibitors of dipeptidyl peptidase IV induce secretion of transforming growth factor β1 in PWM-stimulated PBMNC and T cells”, Immunology 1997, 91, 354-360].

[5] = system: PHA-activated human mononuclear cells (MNZ); assay: WST-1 cell proliferation assay, PHA-activated human mononuclear cells (MNZ)
Description: FIG. 7: The MNZ were incubated for a time period of 72 h without addition (control), with an addition of the mitogenic lectin phytohemagglutinin (PHA), and with the addition of PHA and the inhibitors mentioned above, respectively. Subsequently, the number amount of metabolically active cells was determined by using the commercially available WST-1 cell proliferation assay (Takara Inc.) in accordance with the provisions of the manufacturer.
FIG. 10: The mononuclear cells (MNZ) were incubated for a time period of 72 h in the presence of the inhibitors mentioned above single and in combination. Subsequently, the number of metabolically active cells was determined by using the commercially available WST-1 cell proliferation assay (Takara Inc.) in accordance with the provisions of the manufacturer.

[6] = simultaneous administration of DP IV inhibitor I49 and ACE inhibitor Captopril, dose-dependent (FIG. 5)
[7] = simultaneous administration of DP IV inhibitor I49 and APN inhibitor Actinonin, dose-dependent (FIG. 1)
[8] = simultaneous administration of DP IV inhibitor I49 and prolyl oligopeptidase inhibitor Boc-Ala-thiazolidid, dose-dependent (FIG. 3)
[9] = simultaneous administration of DP IV inhibitor I49 and ACE inhibitor Captopril, dose-dependent (FIG. 6)
[10] = simultaneous administration of DP IV inhibitor I49 and APN inhibitor actinonine, dose-dependent (FIG. 2)
[11] = simultaneous administration of DP IV inhibitor I49 and prolyl oligopeptidase inhibitor Boc-Ala-Thiazolidid, dose-dependent (FIG. 4)
[12] = single and simultaneous administration of I49 and Actinonin, PHA, 72 h (FIG. 7)
[13] = single or simultaneous administration of I49 and APP inhibitor Apstatin, PHA-activated, 72 h (FIG. 10)

| Compound | inhibition of DNA synthesis [1, 6] | inhibition of DNA synthesis [1, 7] | inhibition of DNA synthesis [1, 8] | inhibition of proliferation (number of metabolically active cells) [2] | inhibition of proliferation (number of metabolically active cells) [3] | inhibition of DNA synthesis [4, 9] | inhibition of DNA synthesis [4, 10] | inhibition of DNA synthesis [4, 11] | inhibition of proliferation (number of metabolically active cells) [5, 12] | inhibition of proliferation (number of metabolically active cells) [5, 13] |
| --- | --- | --- | --- | --- | --- | --- | --- | --- | --- | --- |
| NC(CCCCNC(=O)OCc1ccc([N+](=O)[O-])cc1)C(=O)N1CCSC1 (stereo not shown) [I49, Lys[Z(NO2)]-thiazolidid] | inhibited in a superadditive manner | inhibited in a superadditive manner | inhibited in a superadditive manner | Inhibition of the Proliferation | Inhibition of the Proliferation | inhibited in a superadditive manner | inhibited in a superadditive manner | inhibited in a superadditive manner | Inhibition of the Proliferation | Inhibition of the Proliferation |
| CCCCC[C@H](CC(=O)NO)C(=O)N[C@H](C(=O)N1CCC[C@H]1CO)C(C)C [Actinonin] | – | inhibited in a superadditive manner | – | Inhibition of the Proliferation | Inhibition of the Proliferation | – | inhibited in a superadditive manner | – | Inhibition of the Proliferation | – |
| CC(C)C[C@H](NC(=O)[C@@H](O)[C@H](N)Cc1ccccc1)C(=O)N1CCC[C@H]1C(=O)N1CCC[C@H]1C(=O)O [Probestin] | – | – | – | Inhibition of the Proliferation | Inhibition of the Proliferation | – | – | – | – | – |
| C[C@H](CS)C(=O)N1CCC[C@H]1C(=O)O [Captopril] | inhibited in a superadditive manner | – | – | – | – | inhibited in a superadditive manner | – | – | – | – |
| CC(NC(=O)OC(C)(C)C)C(=O)N1CCSC1 (stereo not drawn) [Boc-Ala-thiazolidid] | – | – | inhibited in a superadditive manner | – | – | – | – | inhibited in a superadditive manner | – | – |
| C[C@H](NC(=O)[C@@H]1CCCN1C(=O)[C@@H]1CCCN1C(=O)[C@@H](O)[C@H](N)Cc1ccccc1)C(N)=O [Apstatin] | – | – | – | – | – | – | – | – | – | Inhibition of the Proliferation |
